This note sets out measurements from US6423855B1, “Cytoprotective compounds” (Virginia Commonwealth University, priority 1996, dated 2002).

One series in a line: solubility in water. It is filed as physicochemical. As for the experimental part: To 6.22 g (20.8 mmol) of ricinoleic acid and 4.00 g of triethylamine in 150 mL THF was added 2.31 g (9.0 mmol) of ethylenediamine tetraacetic acid dianhydride. After stirring 15 min at 40° C., 20 mL of acetonitrile was added, since ethylenediamine tetraacetic acid dianhydride was not dissolved completely. The solution was stirred for 72 h under reflux and gradually turned yellow during this time. The solvent was removed under reduced pressure. The mixture was suspended in 100 mL of ether and extracted twice with 50 mL of saturated aqueous sodium chloride. After drying the ether solution, the solvent was removed under reduced pressure. The residue was suspended in methanol and filtered. The solvent was removed under reduced pressure. The residual oil was purified by chromatography on silica gel, eluted with a gradient of acetone/methanol (70:30 v/v to 0:100 v/v). N,N-bis(oleic acid-12-oxycarbonylmethyl)-N-N′-bis(carboxylmethyl) ethylenediamine was isolated as a yellow solid with a yield of 1.23 g (14%).

Series [1] concerns PLA2 activities derived from human platelets and human polymorphonuclear leukocytes (PMNs). Kind of series: in vitro PLA2 activities from human platelets and PMNs. It is filed as biochemical. The note with it: unesterified cis-unsaturated fatty acids. An excerpt:
Oxidation of the sarcoplasmic reticulum of muscle and of phospholipid membranes predisposes them to phospholipase degradation. Phospholipid membranes that have been oxidized at particular sites may appear intact and maintain functional activity, but their oxidation makes them vulnerable to degradation and destruction by PLA2 or other phospholipases from endogenous or exogenous sources.

The test system of another series is clone W2 (P.falciparum). Description: 3H-hypoxanthine incorporation, P.falciparum clone W2. The note with it: Plasmodium falciparum. Type of series: cell-based.
A further series has as its system clone D6 (P. falciparum). Description: 3H-hypoxanthine incorporation, P.falciparum clone D6. It is filed as cell-based. The conditions noted are these: Plasmodium falciparum.
The next series has as its system epidermis cell turnover. Kind of series: cell turnover rate (dansyl chloride). Type of series: in vivo, human. On the procedure: Two PX compounds PX-11 and PX-13 were evaluated in a cream formulation prepared under GMP. The chemicals were formulated into a bland cream and evaluated in the following human or mouse skin tests: (1) occluded patch test for irritation; (2) cell turnover rate; (3) transepidermal water loss; (4) skin moisturization; and (5) reduction in erythema after induced sunburn. The human skin tests were conducted on three volunteer female subjects, ages 29-32; a cream base with no added active was included as a control, while the untreated skin served as an additional basis for evaluation. Sunburn tests were performed on a total of 30 hairless albino mice. 2. Cell turnover rate: This parameter was measured by adsorption of dansyl chloride, in which 3% dansyl chloride was incorporated into petrolatum. This salve was applied over a 2.5 cm diameter circular area in the upper arm and a patch applied. 24 hours later the patch was removed. The intensity of dansyl chloride fluorescence was indicative of the cell turnover rate in the epidermis.

For the next series, the system named is epidermal layer. Description: transepidermal water loss. Type of series: in vivo, human. On the procedure: (§1) Two PX compounds PX-11 and PX-13 were evaluated in a cream formulation prepared under GMP. The chemicals were formulated into a bland cream and evaluated in the following human or mouse skin tests: (1) occluded patch test for irritation; (2) cell turnover rate; (3) transepidermal water loss; (4) skin moisturization; and (5) reduction in erythema after induced sunburn. The human skin tests were conducted on three volunteer female subjects, ages 29-32; a cream base with no added active was included as a control, while the untreated skin served as an additional basis for evaluation. Sunburn tests were performed on a total of 30 hairless albino mice. 3. Transepidermal water loss. This parameter was measured by affixing a flow cell on the forearm site, applying the cream, waiting 20 minutes, then flushing the volume with nitrogen and noting the moisture content of the effluent gases.

For another series, the system named is outer skin layers. Description: skin moisturization (20 megahertz ultrasound). The note with it: for Ultrasound Density Score: 30 minutes after application. It is filed as in vivo, human. As for the experimental part: as §1, with “4. Skin moisturization. Skin moisturization” for “3. Transepidermal water loss. This parameter”, “using 20 megahertz ultrasound (the presence of moisture produces” for “by affixing”, “density decrease in” for “flow cell on”, “outer skin layers), before and 30 minutes after product application to” for “forearm site, applying”, “forearm.” for “cream, waiting 20 minutes, then flushing the volume with nitrogen and noting the moisture content of the effluent gases.”

The test system of series [2] is ultraviolet-induced erythema. Kind of series: protection against ultraviolet-induced erythema. It is filed as in vivo, hairless albino mice. On the procedure: The human skin tests were conducted on three volunteer female subjects, ages 29-32; a cream base with no added active was included as a control, while the untreated skin served as an additional basis for evaluation. Sunburn tests were performed on a total of 30 hairless albino mice.
5.Protection against ultraviolet-induced ervthema. The protection against ultraviolet-induced erythema (i.e., the burn and irritation produced after exposure to ultraviolet radiation), was measured by first irradiating 12 mice with destructive 3130 angstrom (Å) rays, applying the creams, and then evaluating the skin cells for erythema.

By IC50 is commonly meant the point on the concentration scale where inhibition reaches its midpoint.

Converted amounts (≈) assume the structure as drawn. Like-named read-outs stand apart in the source and are kept apart here.

For `CCCCCCC(CC=CCCCCCCCC(=O)O)OC(=O)CN(CCN(CC(=O)O)CC(=O)OC(CC=CCCCCCCCC(=O)O)CCCCCC)CC(=O)O` (centres unmarked) [N,N-Bis(oleic acid-12-oxycarbonylmethyl)-N-N′bis(carboxylmethyl) ethylenediamine], the solubility in water result in the series “solubility in water” is recorded as “readily soluble in water”.

`CCCCC/C=C\C/C=C\C/C=C\C/C=C\CCCC(=O)O` [arachidonic acid]: in series [1], the “inhibition of in vitro PLA2 activity” value is given as “inhibited”.

Turning to `CCN(CC)CCCC(C)Nc1ccnc2cc(Cl)ccc12` (centres unmarked) [chloroquine], the half-maximal inhibitory concentration (IC50) came out at 30 ng/mL (≈ 93.8 nM) in the series on clone W2 (P.falciparum) (W2, read-out: IC50 growth) and 1.6 ng/mL (≈ 5 nM) in the series on clone D6 (P. falciparum) (D6, read-out: IC50 growth).

Consider `CCCCC/C=C\C/C=C\CCCCCCCC(=O)O` [linoleic acid], for which, in series [1], the “inhibition of in vitro PLA2 activity” value was “inhibited”.

Consider `OC(c1cc(C(F)(F)F)nc2c(C(F)(F)F)cccc12)C1CCCCN1` (centres unmarked) [mefloquine], for which the IC50 in the series on clone W2 (P.falciparum) (printed as control cultures sensitive to both drugs, compared with clone W2, read-out: IC50 growth) was 1.3 ng/mL (≈ 3.44 nM); with clone D6 (P. falciparum) (printed as control cultures sensitive to both drugs, compared with clone D6, read-out: IC50 growth), 4.3 ng/mL (≈ 11.4 nM).

As to `CCCCCCCC/C=C\CCCCCCCC(=O)O` [oleic acid], in series [1], the “inhibition of in vitro PLA2 activity” value was “inhibited”.

Take tricinyl trioleate [PX-11]: the “Days to Cell Renewal Treated” value with epidermis cell turnover (cream-treated skin, upper arm) is 28.8 days. Besides, in the series with epidermis cell turnover (treated vs untreated skin), the “% Change in Cell Turnover Time” value is listed as “+34%”. The “% Change in Transepidermal Water Loss” value in the series with epidermal layer (forearm, 20 minutes after applying cream) is reported as “+649.0%”. Further, the “effect on water loss from the epidermal layer” value in the series on epidermal layer (in vivo) is “opened the pores and permitted water to escape”. In addition, the “effectiveness at promoting water loss vs control” value in the series with epidermal layer (relative to control cream) was determined as 10 times. Besides, the “Ultrasound Density Score” value in the series with outer skin layers (Subject 1, 7 = Best, 1 = Baseline) was 3; with outer skin layers (Subject 2) it was 3; in the series with outer skin layers (Subject 3) it was 1. Moreover, the “Ultrasound Density Score Total” value in the series on outer skin layers (Total of 3 subjects, 7 = Best, 1 = Baseline) came out at 7. In addition, the “moisturization properties” value in the series on outer skin layers (in vivo) is “good moisturization properties”. Also, the “Post-Radiation Erythema Ranking Mean” value in series [2] (Mean, 1 = Best, 4 = Worst) stood at 2. Moreover, the “Post-Radiation Erythema Ranking” value in series [2] (Subject 1, 1 = Best, 4 = Worst) is 2; in series [2] (Subject 2, 1 = Best, 4 = Worst), 2; in series [2] (Subject 3, 1 = Best, 4 = Worst), 2. Moreover, the “erythema reduction vs base cream” value in series [2] (mouse, in vivo) is reported as “significantly better than the base cream”.
